Results on 40 compounds are retold here after patent publication US20230321100A1, “CD73 INHIBITOR AND APPLICATION THEREOF IN MEDICINE” (BETTA PHARMACEUTICALS CO., LTD, priority 2020, published 2023).

The target of this assay is T1, CD73 (Calu-6 cells) (Homo sapiens, UniProt P21589).
T1 construct: endogenous in cells; host or cells: Calu-6 cells
T1 sequence (P21589 27-549): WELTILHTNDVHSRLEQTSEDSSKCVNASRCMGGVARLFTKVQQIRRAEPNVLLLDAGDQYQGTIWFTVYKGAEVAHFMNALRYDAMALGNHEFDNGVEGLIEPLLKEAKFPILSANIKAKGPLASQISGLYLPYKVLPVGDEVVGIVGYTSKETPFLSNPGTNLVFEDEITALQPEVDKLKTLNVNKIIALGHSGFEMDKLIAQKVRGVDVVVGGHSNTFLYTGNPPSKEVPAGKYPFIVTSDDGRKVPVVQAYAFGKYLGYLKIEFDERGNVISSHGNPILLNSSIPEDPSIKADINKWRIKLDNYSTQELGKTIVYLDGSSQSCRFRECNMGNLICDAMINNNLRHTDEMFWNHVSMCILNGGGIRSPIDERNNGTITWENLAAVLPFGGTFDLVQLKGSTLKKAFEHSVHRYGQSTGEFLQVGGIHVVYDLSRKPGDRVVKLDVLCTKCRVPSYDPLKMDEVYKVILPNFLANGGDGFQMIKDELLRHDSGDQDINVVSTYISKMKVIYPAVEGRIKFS
Nature of the assay: Enzymatic activity detection at the cellular level (Calu-6 cells, AMP substrate, Cell-titer Glo luminescence). Format: cell-based. The settings on record: enzymatic IC50 at the Calu-6 cell level, 30 min pre-incubation, 120 min at 37° C. Here is the method:
The Calu-6 cells were digested and re-suspended using TM buffer (25 mM Tris, 5 mM MgCl2, pH 7.5). Calu-6 cell suspension was seeded into 96 well cell culture plate, and the number of cells per well was 2.5×10^4, adding volume of 100 μL/well. Compound solution with gradient concentration was prepared by TM buffer, and 50 μL DMSO solution with different concentration was added into each pore cell. […] Pre-incubated in a shaker at 37° C. for 30 min. Each well was added with 50 μL 800 μM AMP solution. The shaker at 37° C. for 120 min was continued to incubate, then the 96-well plates were centrifuged and 50 μL supernatant was transferred to the new 96-well plates. […] The luminescence value was read by the multi-function enzymatic reader and converted into the inhibition percentage: Inhibition percentage=(1−reading/Max)*100. The “maximum value” was DMSO control. IC50 values were obtained by curve fitting with GraphPad Prism software.
For orientation: IC50 means the concentration at which inhibition is half-maximal. Read a low IC50 as higher potency. In turn, `C=Cc1nnc(-c2c[nH]c(=O)[nH]c2=O)cc1[C@H]1C[C@@H]1CC` [Compound 1, 5-(5-((1S,2S)-2-ethylcyclopropyl)-6-vinylpyridazin-3-yl)pyrimidine-2,4(1H,3H)-dione] showed an IC50 of 21.6 nM. In turn, `Cc1ccc(C2CC2c2cc(-c3c[nH]c(=O)[nH]c3=O)nnc2Cl)c(C)c1` (stereo not shown) [Compound 61] displayed a half-inhibitory concentration (IC50) of 19 nM. Take `COc1nnc(-c2c[nH]c(=O)[nH]c2=O)cc1C1CC1c1ccc(Cl)cc1` (stereo not shown) [Compound 33, 5-(5-(2-(4-chlorophenyl)cyclopropyl)-6-methoxypyridazin-3-yl)pyrimidine-2,4(1H,3H)-dione]: the IC50 is 3.9 nM. Turning to `N#Cc1ccc(C2CC2c2cc(-c3c[nH]c(=O)[nH]c3=O)nnc2C#N)cc1` (stereo not shown) [Compound 78, 4-(2-(4-cyanophenyl)cyclopropyl)-6-(2,4-dioxo-1,2,3,4-tetrahydropyrimidin-5-yl)pyridazine-3-carbonitrile], the IC50 was determined as 8.5 nM. In the case of `COc1nnc(-c2c[nH]c(=O)[nH]c2=O)cc1[C@H]1C[C@@H]1C#Cc1ccccn1` [Compound 52], it took 5.8 nM to reach half-maximal inhibition (IC50). For `N#Cc1nnc(-c2c[nH]c(=O)[nH]c2=O)cc1[C@H]1C[C@@H]1C#Cc1ccccc1` [Compound 54], inhibition was half-maximal at 8.2 nM (IC50). Consider `O=c1[nH]cc(-c2cc(C3CC3c3cc(F)c(F)cc3F)c(Cl)nn2)c(=O)[nH]1` (stereo not shown) [Compound 73], for which half-maximal inhibition (IC50) required 5.9 nM. Next, `COc1nnc(-c2c[nH]c(=O)[nH]c2=O)cc1C1CC1c1ccccc1` (stereo not shown) [Compound 31, 5-(6-methoxy-5-(2-phenylcyclopropyl)pyridazin-3-yl)pyrimidine-2,4(1H,3H)-dione]: 4.2 nM. The value for `O=c1[nH]cc(-c2cc([C@H]3C[C@@H]3c3nc4ccccc4[nH]3)c(Cl)nn2)c(=O)[nH]1` [Compound 60, 5-(5-((1S,2S)-2-(1H-benzo[d]imidazol-2-yl)cyclopropyl)-6-chloropyridazin-3-yl)pyrimidine-2, 4(1H,3H)-dione] was 23.3 nM. Take `O=c1[nH]cc(-c2cc(C3CC3c3ccc(-c4ccccc4)cc3)c(Cl)nn2)c(=O)[nH]1` (stereo not shown) [Compound 76]: the midpoint of inhibition, the IC50, lay at 51.9 nM.

In turn, `COc1nnc(-c2c[nH]c(=O)[nH]c2=O)cc1[C@H]1C[C@@H]1C#Cc1cccc(C#N)c1` [Compound 51] displayed an IC50 of 4.3 nM. For `O=c1[nH]cc(-c2cc([C@H]3C[C@@H]3C#Cc3ccccn3)c(Cl)nn2)c(=O)[nH]1` [Compound 43], 3.7 nM corresponded to half-maximal inhibition (IC50). The compound `C/C=C/[C@H]1C[C@@H]1c1cc(-c2c[nH]c(=O)[nH]c2=O)nnc1C` [Compound 8, 5-(6-methyl-5-((1S,2R)-2-((E)-prop-1-en-1-yl)cyclopropyl)pyridazin-3-yl)pyrimidine-2,4(1H,3H)-dione] registered an IC50 of 92.7 nM. Regarding `O=Cc1ccc(C2CC2c2cc(-c3c[nH]c(=O)[nH]c3=O)nnc2Cl)cc1` (stereo not shown) [Compound 74], the midpoint of inhibition, the IC50, lay at 2.7 nM. As for `N#Cc1ccc(/C=C/[C@H]2C[C@@H]2c2cc(-c3c[nH]c(=O)[nH]c3=O)nnc2Cl)cc1` [Compound 17, 4-((E)-2-((1R,2S)-2-(3-chloro-6-(2,4-dioxo-1,2,3,4-tetrahydropyrimidin-5-yl)pyridazin-4-yl)cyclopropyl)vinyl)benzonitrile], the IC50 amounted to 2.3 nM.

Take `Cc1ccc(C2CC2c2cc(-c3c[nH]c(=O)[nH]c3=O)nnc2Cl)cc1C` (stereo not shown) [Compound 62]: the half-inhibitory concentration (IC50) amounted to 5.6 nM. Consider `O=c1[nH]cc(-c2cc([C@H]3C[C@@H]3C#Cc3ccncc3)c(Cl)nn2)c(=O)[nH]1` [Compound 37, 5-(6-chloro-5-((1S,2S)-2-(pyridin-4-ylethynyl)cyclopropyl)pyridazin-3-yl)pyrimidine-2,4(1H, 3H)-dione], for which the IC50 amounted to 1.2 nM. On to `C=CC1CC1c1cc(-c2c[nH]c(=O)[nH]c2=O)nnc1C` (stereo not shown) [Compound 6, 5-(6-methyl-5-(2-vinylcyclopropyl)pyridazin-3-yl)pyrimidine-2,4(1H,3H)-dione], for which the 50% inhibitory concentration (IC50) was 50.7 nM.

Compound `C=C1CC(c2cc(-c3c[nH]c(=O)[nH]c3=O)nnc2Cl)C1` [Compound 4, 5-(6-chloro-5-(3-methylenecyclobutyl)pyridazin-3-yl)pyrimidine-2,4(1H,3H)-dione] came in with an IC50 of 22.6 nM.

Take `O=c1[nH]cc(-c2cc(C3CC3c3ccc(Cl)cc3)c(Cl)nn2)c(=O)[nH]1` (stereo not shown) [Compound 28, 5-(6-chloro-5-(2-(4-chlorophenyl)cyclopropyl)pyridazin-3-yl)pyrimidine-2,4(1H,3H)-dione]: the half-maximal inhibitory concentration (IC50) was 2.7 nM. `C=C[C@H]1C[C@@H]1c1cc(-c2c[nH]c(=O)[nH]c2=O)nnc1OC` [Compound 39, 5-(6-methoxy-S-((1S,2R)-2-vinylcyclopropyl)pyridazin-3-yl)pyrimidine-2,4(1H,3H)-dione]: the IC50 came to 2.5 nM. The value for `CC(C)c1ccc(C2CC2c2cc(-c3c[nH]c(=O)[nH]c3=O)nnc2Cl)cc1` (stereo not shown) [Compound 64] was 22.3 nM; that for `N#Cc1nnc(-c2c[nH]c(=O)[nH]c2=O)cc1C1CC1c1ccc(Cl)cc1` (stereo not shown) [Compound 36, 4-(2-(4-chlorophenyl)cyclopropyl)-6-(2,4-dioxo-1,2,3,4-tetrahydropyrimidin-5-yl)pyridazine-3-carbonitrile] was 1.9 nM.

In turn, `Cc1ccc(C2CC2c2cc(-c3c[nH]c(=O)[nH]c3=O)nnc2Cl)cc1F` (stereo not shown) [Compound 65] registered an IC50 of 4.7 nM. Consider `O=c1[nH]cc(-c2cc(C3CC3c3cccc(F)c3F)c(Cl)nn2)c(=O)[nH]1` (stereo not shown) [Compound 70], for which the IC50 was 7 nM. For the compound `N#Cc1ccccc1C#C[C@H]1C[C@@H]1c1cc(-c2c[nH]c(=O)[nH]c2=O)nnc1Cl` [Compound 46], 4.4 nM corresponded to half-maximal inhibition (IC50).

As for `N#Cc1nnc(-c2c[nH]c(=O)[nH]c2=O)cc1[C@H]1C[C@@H]1C#Cc1ccccn1` [Compound 56], inhibition was half-maximal at 19.4 nM (IC50).

Compound `C=C(C)c1nnc(-c2c[nH]c(=O)[nH]c2=O)cc1[C@H]1C[C@@H]1CC` [Compound 2, 5-(5-((1S,2S)-2-ethylcyclopropyl)-6-(prop-1-en-2-yl)pyridazin-3-yl)pyrimidine-2,4(1H,3H)-dione] showed a concentration for half-maximal inhibition (IC50) of 329 nM. The value for `O=c1[nH]cc(-c2cc([C@H]3C[C@@H]3C#Cc3ccc(F)cc3)c(Cl)nn2)c(=O)[nH]1` [Compound 48] was 3.8 nM. The compound `O=c1[nH]cc(-c2cc(C3CC3c3c(F)cc(F)cc3F)c(Cl)nn2)c(=O)[nH]1` (stereo not shown) [Compound 72] had an IC50 of 4.9 nM.

The compound `O=c1[nH]cc(-c2cc(C3CC3c3cccc4ccccc34)c(Cl)nn2)c(=O)[nH]1` (stereo not drawn) [Compound 30, 5-(6-chloro-S-(2-(naphthalen-1yl)cyclopropyl)pyridazin-3-yl)pyrimidine-2,4(1H,3H)-dione] returned a concentration for half-maximal inhibition (IC50) of 60 nM. `O=c1[nH]cc(-c2cc([C@H]3C[C@@H]3C#Cc3ccc(Cl)cc3)c(Cl)nn2)c(=O)[nH]1` [Compound 47]: the IC50 came to 7.8 nM. Next, `N#Cc1ccc(C#C[C@H]2C[C@@H]2c2cc(-c3c[nH]c(=O)[nH]c3=O)nnc2C#N)cc1` [Compound 55]: 5.6 nM; `COc1nnc(-c2c[nH]c(=O)[nH]c2=O)cc1[C@H]1C[C@@H]1C#Cc1ccccc1` [Compound 21, 5-(6-methoxy-S-((1S,2S)-2-(phenylethynyl)cyclopropyl)pyridazin-3-yl)pyrimidine-2,4(1H,3H)-dione]: 5.5 nM; `COc1ccc(C#C[C@H]2C[C@@H]2c2cc(-c3c[nH]c(=O)[nH]c3=O)nnc2Cl)cc1` [Compound 44]: 3.1 nM. Compound `COc1cccc(C2CC2c2cc(-c3c[nH]c(=O)[nH]c3=O)nnc2Cl)c1` (stereo not shown) [Compound 29, 5-(6-chloro-5-(2-(3-methoxyphenyl)cyclopropyl)pyridazin-3-yl)pyrimidine-2,4(1H,3H)-dione] showed an IC50 of 4.1 nM. Turning to `Cc1nnc(-c2c[nH]c(=O)[nH]c2=O)cc1[C@H]1C[C@@H]1/C=C/C1CC1` [Compound 9, 5-(5-((1S,2R)-2-((E)-2-cyclopropylvinyl)cyclopropyl)-6-methylpyridazin-3-yl)pyrimidine-2,4(1H,3H)-dione], the midpoint of inhibition, the IC50, lay at 200 nM. Next, `N#Cc1ccc(C2CC2c2cc(-c3c[nH]c(=O)[nH]c3=O)nnc2Cl)cc1` (stereo not shown) [Compound 25, 4-(2-(3-chloro-6-(2,4-dioxo-1,2,3,4-tetrahydropyrimidin-5-yl)pyridazin-4-yl)cyclopropyl)benzonitrile]: 1.8 nM; `Cc1nnc(-c2c[nH]c(=O)[nH]c2=O)cc1[C@H]1C[C@@H]1C=C(F)F` [Compound 11, 5-(5-((1S,2S)-2-(2,2-difluorovinyl)cyclopropyl)-6-methylpyridazin-3-yl)pyrimidine-2,4(1H,3H)-dione]: 46 nM; `CC[C@H]1C[C@@H]1c1cc(-c2c[nH]c(=O)[nH]c2=O)nnc1C1CC1` [Compound 3, 5-(6-cyclopropyl-5-((1S,2S)-2-ethylcyclopropyl)pyridazin-3-yl)pyrimidine-2,4(1H,3H)-dione]: 721 nM.
